Experimental data published in paper PMC7932537, “Quantitative profiling of protease specificity” (PLoS Computational Biology, 2021).

Tests used:
MMP-2 [1] = test: Substrate phage display with NGS: relative probability (RP) of P3-P1' tetramer clusters; assay type: biochemical, human; details: MMP2;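 also: ratio of tetramer probability after protease selection to that in naive phage library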
MMP-2 [2] = target: T1, MMP-2 (Homo sapiens, UniProt P08253); test: K(obs) of individual phage substrates (set of 1369); assay type: biochemical; details: MMP2
T1 sequence (P08253 110-660): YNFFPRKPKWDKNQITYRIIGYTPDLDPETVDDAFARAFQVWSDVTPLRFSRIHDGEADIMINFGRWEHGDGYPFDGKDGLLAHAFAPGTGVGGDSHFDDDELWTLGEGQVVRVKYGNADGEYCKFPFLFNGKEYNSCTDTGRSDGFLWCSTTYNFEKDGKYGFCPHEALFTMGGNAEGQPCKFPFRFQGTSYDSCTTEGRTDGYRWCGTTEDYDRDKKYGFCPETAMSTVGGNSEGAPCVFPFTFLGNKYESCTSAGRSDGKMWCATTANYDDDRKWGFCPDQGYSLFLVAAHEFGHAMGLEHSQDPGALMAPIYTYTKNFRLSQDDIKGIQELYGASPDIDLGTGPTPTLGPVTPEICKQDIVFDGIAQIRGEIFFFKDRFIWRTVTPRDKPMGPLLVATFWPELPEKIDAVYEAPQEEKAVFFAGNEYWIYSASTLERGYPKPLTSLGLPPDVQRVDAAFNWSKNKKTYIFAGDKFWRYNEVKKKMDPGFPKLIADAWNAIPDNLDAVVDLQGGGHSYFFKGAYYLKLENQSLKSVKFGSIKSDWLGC

MMP-9 = MMP-9 (Homo sapiens, UniProt P14780); test: as above; assay type: biochemical; details: MMP9
[3] = RP of the P3-P1' tetramer contained in the substrate (substrate phage display with NGS)
[4] = individual phage substrates, set of 1369 peptides, cleavage position marked by hyphen in sequence
[5] = individual phage substrates, set of 1369 peptides, hyphen in sequence marks cleavage position
[6] = RP of the P3-P1' tetramer contained in the substrate
[7] = individual phage substrate of the set of 1369 peptides, cleavage position marked by '-'
[8] = individual phage substrate of the set of 1369 peptides, dash in the sequence marks the cleavage position

MMP-9, sequence (P14780 94-707): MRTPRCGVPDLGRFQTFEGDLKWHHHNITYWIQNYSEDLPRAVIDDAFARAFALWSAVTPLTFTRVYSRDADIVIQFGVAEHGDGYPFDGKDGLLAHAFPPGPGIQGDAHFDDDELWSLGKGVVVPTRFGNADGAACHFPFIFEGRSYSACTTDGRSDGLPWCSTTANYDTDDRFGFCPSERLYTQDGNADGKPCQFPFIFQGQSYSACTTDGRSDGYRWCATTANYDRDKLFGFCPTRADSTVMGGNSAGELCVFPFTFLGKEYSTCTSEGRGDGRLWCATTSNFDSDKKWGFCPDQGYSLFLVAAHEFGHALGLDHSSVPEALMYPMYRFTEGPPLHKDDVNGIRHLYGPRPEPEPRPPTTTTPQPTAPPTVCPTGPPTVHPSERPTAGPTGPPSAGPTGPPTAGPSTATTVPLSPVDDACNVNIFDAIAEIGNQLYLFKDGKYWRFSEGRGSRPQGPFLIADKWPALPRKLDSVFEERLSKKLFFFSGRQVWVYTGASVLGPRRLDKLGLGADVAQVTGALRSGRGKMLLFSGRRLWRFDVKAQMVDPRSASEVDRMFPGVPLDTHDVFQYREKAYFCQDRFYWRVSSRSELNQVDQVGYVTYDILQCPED

Substance | relative probability (RP) (MMP-2 [1]; [3]) | Kobs (MMP-2 [2]; [4]) | Kobs (MMP-9; [5]) | relative probability (RP) (MMP-2 [1]; [6]) | Kobs (MMP-2 [2]; [7]) | Kobs (MMP-9; [8])
QRMAS-LTASG | 31.6834 | 10866.7 M⁻¹ s⁻¹ | 551.253 M⁻¹ s⁻¹ | – | – | –
QRPAQ-LTASG | 32.8467 | 12792.1 M⁻¹ s⁻¹ | 12792.1 M⁻¹ s⁻¹ | – | – | –
QSPRM-LTASG | – | – | – | 30.5973 | 10866.7 M⁻¹ s⁻¹ | 10866.7 M⁻¹ s⁻¹
QSWYG-MTASG | 0.05309 | 1112.44 M⁻¹ s⁻¹ | 3741.87 M⁻¹ s⁻¹ | – | – | –
QVSWA-WTASG | 0.05632 | 0 M⁻¹ s⁻¹ | 231.616 M⁻¹ s⁻¹ | – | – | –
RAPAS-LTASG | – | – | – | 36.4285 | 12792.1 M⁻¹ s⁻¹ | 12792.1 M⁻¹ s⁻¹
RAPLH-MTASG | – | – | – | 30.0095 | 2916.17 M⁻¹ s⁻¹ | 12792.1 M⁻¹ s⁻¹
RAPSM-LTASG | 33.0235 | 5889.62 M⁻¹ s⁻¹ | 7815.03 M⁻¹ s⁻¹ | – | – | –
RDLSH-LTASG | 29.8814 | 9740.44 M⁻¹ s⁻¹ | 261.974 M⁻¹ s⁻¹ | – | – | –
RDVLA-LTASG | 13.5229 | 3438.54 M⁻¹ s⁻¹ | 3165.09 M⁻¹ s⁻¹ | – | – | –
REPLT-LTASG | – | – | – | 24.2603 | 12792.1 M⁻¹ s⁻¹ | 12792.1 M⁻¹ s⁻¹
RFALN-LTASG | 17.2813 | 7015.91 M⁻¹ s⁻¹ | 9740.44 M⁻¹ s⁻¹ | – | – | –
RFPRP-ITASG | – | – | – | 33.2176 | 12792.1 M⁻¹ s⁻¹ | 12792.1 M⁻¹ s⁻¹
RGPYH-LTASG | 27.2418 | 12792.1 M⁻¹ s⁻¹ | 12792.1 M⁻¹ s⁻¹ | – | – | –
RGPYM-LTASG | 24.9477 | 6688.74 M⁻¹ s⁻¹ | 12792.1 M⁻¹ s⁻¹ | – | – | –
RILGY-LTASG | 24.8925 | 12792.1 M⁻¹ s⁻¹ | 292.668 M⁻¹ s⁻¹ | – | – | –
RIPAS-LTASG | – | – | – | 36.4285 | 12792.1 M⁻¹ s⁻¹ | 12792.1 M⁻¹ s⁻¹
RIPRF-LTASG | – | – | – | 28.4443 | 12792.1 M⁻¹ s⁻¹ | 12792.1 M⁻¹ s⁻¹
RKPAP-WTASG | – | – | – | 31.7353 | 8321.48 M⁻¹ s⁻¹ | 3253.29 M⁻¹ s⁻¹
RKVRN-WTASG | 17.7682 | 0 M⁻¹ s⁻¹ | 201.585 M⁻¹ s⁻¹ | – | – | –
RLANA-LTASG | – | – | – | 20.3526 | 3741.87 M⁻¹ s⁻¹ | 619.843 M⁻¹ s⁻¹
RLANN-LTASG | – | – | – | 18.8719 | 5461.43 M⁻¹ s⁻¹ | 484.315 M⁻¹ s⁻¹
RLLLN-MTASG | 13.7728 | 2916.17 M⁻¹ s⁻¹ | 1112.44 M⁻¹ s⁻¹ | – | – | –
RLPVA-ITASG | – | – | – | 32.4892 | 12792.1 M⁻¹ s⁻¹ | 12792.1 M⁻¹ s⁻¹
RLPVH-YTASG | – | – | – | 23.3589 | 7815.03 M⁻¹ s⁻¹ | 12792.1 M⁻¹ s⁻¹
RLPWS-LTASG | – | – | – | 28.5684 | 5667.28 M⁻¹ s⁻¹ | 12792.1 M⁻¹ s⁻¹
RLYMN-ITASG | 0 | 0 M⁻¹ s⁻¹ | 0 M⁻¹ s⁻¹ | – | – | –

Substance | relative probability (RP) (MMP-2 [1]; [3]) | Kobs (MMP-2 [2]; [4]) | Kobs (MMP-9; [5]) | relative probability (RP) (MMP-2 [1]; [6]) | Kobs (MMP-2 [2]; [7]) | Kobs (MMP-9; [8])
RMLAQ-LTASG | 25.841 | 12792.1 M⁻¹ s⁻¹ | 113.394 M⁻¹ s⁻¹ | – | – | –
RNGLA-LTASG | 0.6848 | 0 M⁻¹ s⁻¹ | 0 M⁻¹ s⁻¹ | – | – | –
RNPEW-MTASG | 12.3271 | 2996.69 M⁻¹ s⁻¹ | 4763.33 M⁻¹ s⁻¹ | – | – | –
RPPLA-FTASG | – | – | – | 31.4142 | 7386.83 M⁻¹ s⁻¹ | 12792.1 M⁻¹ s⁻¹
RPPSS-LTASG | 35.4913 | 10866.7 M⁻¹ s⁻¹ | 9740.44 M⁻¹ s⁻¹ | – | – | –
RQLAA-ITASG | – | – | – | 28.8382 | 4205.91 M⁻¹ s⁻¹ | 355.093 M⁻¹ s⁻¹
RQLAH-ITASG | 25.9365 | 10866.7 M⁻¹ s⁻¹ | 27.918 M⁻¹ s⁻¹ | – | – | –
RQVRY-LTASG | 18.3724 | 8321.48 M⁻¹ s⁻¹ | 7015.91 M⁻¹ s⁻¹ | – | – | –
RQWRA-LTASG | – | – | – | 22.4074 | 5889.62 M⁻¹ s⁻¹ | 4470.66 M⁻¹ s⁻¹
RQWYG-ITASG | – | – | – | 0.0533 | 142.481 M⁻¹ s⁻¹ | 4922.1 M⁻¹ s⁻¹
RRPTN-LTASG | – | – | – | 31.0288 | 12792.1 M⁻¹ s⁻¹ | 12792.1 M⁻¹ s⁻¹
RRVLM-MTASG | 2.736 | 171.876 M⁻¹ s⁻¹ | 1660.66 M⁻¹ s⁻¹ | – | – | –
RSHAS-LTASG | 26.2573 | 12792.1 M⁻¹ s⁻¹ | 0 M⁻¹ s⁻¹ | – | – | –
RTAHN-LTASG | – | – | – | 23.7113 | 12792.1 M⁻¹ s⁻¹ | 5667.28 M⁻¹ s⁻¹
RTASH-LTASG | – | – | – | 19.8208 | 8321.48 M⁻¹ s⁻¹ | 84.609 M⁻¹ s⁻¹
RTGLY-LTASG | – | – | – | 0.07615 | 1283.43 M⁻¹ s⁻¹ | 0 M⁻¹ s⁻¹
RTMLH-MTASG | 4.713 | 619.843 M⁻¹ s⁻¹ | 261.974 M⁻¹ s⁻¹ | – | – | –
RTPIG-ITASG | – | – | – | 31.281 | 9740.44 M⁻¹ s⁻¹ | 12792.1 M⁻¹ s⁻¹
RTPMA-MTASG | – | – | – | 30.2676 | 2837.92 M⁻¹ s⁻¹ | 3637.04 M⁻¹ s⁻¹
RTPVG-LTASG | 35.2016 | 12792.1 M⁻¹ s⁻¹ | 8321.48 M⁻¹ s⁻¹ | – | – | –
RVPYG-LTASG | – | – | – | 32.9966 | 6131.32 M⁻¹ s⁻¹ | 7015.91 M⁻¹ s⁻¹
RVTWA-LTASG | 0.4366 | 0 M⁻¹ s⁻¹ | 1196.62 M⁻¹ s⁻¹ | – | – | –
RYAQP-LTASG | 14.4283 | 4205.91 M⁻¹ s⁻¹ | 2409.72 M⁻¹ s⁻¹ | – | – | –
SEPFG-LTASG | – | – | – | 31.7131 | 12792.1 M⁻¹ s⁻¹ | 12792.1 M⁻¹ s⁻¹
SEWQG-LTASG | – | – | – | 12.939 | 1711.63 M⁻¹ s⁻¹ | 690.17 M⁻¹ s⁻¹
SFPNP-LTASG | – | – | – | 23.6266 | 5667.28 M⁻¹ s⁻¹ | 2545.25 M⁻¹ s⁻¹
